In ChEMBL document CHEMBL4507259 (2021):
Active and inactive are the calls of the source. No cut-off for these calls is given here.

Tests used:
[1] = system: Receptor-type tyrosine-protein kinase FLT3 (Homo sapiens), P36888 [D835H]; conditions: Compound concentration 1000.0 nM
[2] = molecular target: Rho-associated protein kinase 1 (Homo sapiens) (UniProt Q13464); conditions: Compound concentration 1000.0 nM
[3] = molecular target: Ribosomal protein S6 kinase beta-1 (Homo sapiens) (UniProt P23443); conditions: Compound concentration 1000.0 nM
[4] = molecular target: Rho-associated protein kinase 2 (Homo sapiens) (UniProt O75116); conditions: Compound concentration 1000.0 nM
[5] = molecular target: 5-hydroxytryptamine receptor 1D (Homo sapiens) (UniProt P28221); conditions: Compound concentration 10.0 uM
[6] = molecular target: Mitogen-activated protein kinase 8 (Homo sapiens) (UniProt P45983); conditions: Compound concentration 1000.0 nM
[7] = molecular target: Wee1-like protein kinase (Homo sapiens) (UniProt P30291); conditions: Compound concentration 1000.0 nM
LNCaP-Clone-FGC = assay: LnCaP-FGC Proliferation; assay type: functional, cell-based; conditions: Homo sapiens
[8] = molecular target: Serine/threonine-protein kinase Nek10 (Homo sapiens) (UniProt Q6ZWH5); conditions: Compound concentration 1000.0 nM
[9] = molecular target: Serine/threonine-protein kinase SBK1 (Homo sapiens) (UniProt Q52WX2); conditions: Compound concentration 1000.0 nM
[10] = molecular target: T1, Alpha-1A adrenergic receptor (Homo sapiens) (UniProt P35348); conditions: Compound concentration 10.0 uM
T1 sequence (whole entry): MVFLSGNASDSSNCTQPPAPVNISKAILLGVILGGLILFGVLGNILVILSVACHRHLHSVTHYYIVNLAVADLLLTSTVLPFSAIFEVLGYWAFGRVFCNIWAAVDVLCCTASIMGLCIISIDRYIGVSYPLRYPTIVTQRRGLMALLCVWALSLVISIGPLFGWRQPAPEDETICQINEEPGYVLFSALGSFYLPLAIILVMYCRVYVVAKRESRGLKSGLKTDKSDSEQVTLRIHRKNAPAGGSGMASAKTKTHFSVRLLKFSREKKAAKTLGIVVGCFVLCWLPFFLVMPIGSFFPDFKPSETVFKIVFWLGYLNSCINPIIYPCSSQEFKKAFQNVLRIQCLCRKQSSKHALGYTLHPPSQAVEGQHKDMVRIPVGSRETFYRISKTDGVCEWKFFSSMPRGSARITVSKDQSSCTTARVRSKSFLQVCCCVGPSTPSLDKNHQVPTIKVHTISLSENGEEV

[11] = molecular target: Cyclin-dependent kinase 5 (Homo sapiens) (UniProt Q00535); conditions: Compound concentration 1000.0 nM
[12] = molecular target: Bone morphogenetic protein receptor type-2 (Homo sapiens) (UniProt Q13873); conditions: Compound concentration 1000.0 nM
[13] = molecular target: Sulfonylurea receptors; K-ATP channels (Homo sapiens) (UniProt Q14654+O60706+Q09428+Q15842); assay: KATP channel CEREP ligand profiling; assay type: protein-complex assay; conditions: filed as antagonist; Compound concentration 10.0 uM
[14] = system: Tyrosine-protein kinase ABL1 (Homo sapiens), P00519 [H396P]; conditions: Compound concentration 1000.0 nM
[15] = molecular target: Phosphatidylinositol 4,5-bisphosphate 3-kinase catalytic subunit beta isoform (Homo sapiens) (UniProt P42338); conditions: Compound concentration 1000.0 nM
[16] = molecular target: Urotensin-2 receptor (Homo sapiens) (UniProt Q9UKP6); assay: UT (h) CEREP ligand profiling; conditions: filed as agonist, Compound concentration 10.0 uM
[17] = molecular target: Maternal embryonic leucine zipper kinase (Homo sapiens) (UniProt Q14680); conditions: Compound concentration 1000.0 nM
[18] = molecular target: Serine/threonine-protein kinase NLK (Homo sapiens) (UniProt Q9UBE8); conditions: Compound concentration 1000.0 nM
[19] = molecular target: Cyclin-dependent kinase 11B (Homo sapiens) (UniProt P21127); conditions: Compound concentration 1000.0 nM
[20] = molecular target: Bone morphogenetic protein receptor type-1B (Homo sapiens) (UniProt O00238); conditions: Compound concentration 1000.0 nM
[21] = molecular target: Vascular endothelial growth factor receptor 1 (Homo sapiens) (UniProt P17948); conditions: Compound concentration 1000.0 nM
[22] = molecular target: Cyclin-dependent kinase 7 (Homo sapiens) (UniProt P50613); conditions: Compound concentration 1000.0 nM
[23] = molecular target: Tyrosine-protein kinase ITK/TSK (Homo sapiens) (UniProt Q08881); conditions: Compound concentration 1000.0 nM
[24] = molecular target: Protein kinase C iota type (Homo sapiens) (UniProt P41743); conditions: Compound concentration 1000.0 nM
NCI-H1417 = assay: H1417 cell line Proliferation assay; assay type: functional, Homo sapiens; conditions: Compound concentration 10 uM; time 4 day
MOLM-13 = assay: MOLM-13 cell line Proliferation assay; assay type: functional, Homo sapiens; conditions: Compound concentration 10 uM; time 3 day
HCC38 = assay: HCC38 cell line Proliferation assay; assay type: functional, Homo sapiens; conditions: Compound concentration 10 uM; time 5 day
[25] = molecular target: Sodium-dependent serotonin transporter (Homo sapiens, UniProt P31645); assay: GPCRScan assay: inhibition of SERT; parameters: radioligand conc. used [nm] 1.5 – 2.0, parental cells stable HEK
NCI-H1836 = assay: H1836 cell line Proliferation assay; assay type: functional, Homo sapiens; conditions: Compound concentration 10 uM; time 4 day
DU-145 = assay: DU-145 cell line Proliferation assay; assay type: functional, Homo sapiens; conditions: Compound concentration 10 uM; time 5 day
HCC1143 = assay: HCC1143 cell line Proliferation assay; assay type: functional, Homo sapiens; conditions: Compound concentration 10 uM; time 5 day
NCI-H187 = assay: H187 cell line Proliferation assay; assay type: functional, Homo sapiens; conditions: Compound concentration 10 uM; time 4 day
WM 266-4 = assay: WM2664 cell line Proliferation assay; assay type: functional, Homo sapiens; conditions: Compound concentration 10 uM; time 5 day
[26] = molecular target: Calcitonin-gene-related peptide receptor, CALCRL/RAMP1 (Homo sapiens) (UniProt O60894+Q16602); assay: CGRP (h) CEREP ligand profiling; assay type: protein-complex assay; conditions: filed as agonist, Compound concentration 10.0 uM
NCI-H838 = assay: H838 cell line Proliferation assay; assay type: functional, Homo sapiens; conditions: Compound concentration 10 uM; time 3 day
DOHH-2 = assay: DoHH2 cell line Proliferation assay; assay type: functional, Homo sapiens; conditions: Compound concentration 10 uM; time 3 day
OCI-AML-5 = assay: OCI-AML5 cell line Proliferation assay; assay type: functional, Homo sapiens; conditions: Compound concentration 10 uM; time 3 day
NU-DUL-1 = assay: NuDUL1 cell line Proliferation assay; assay type: functional, Homo sapiens; conditions: Compound concentration 10 uM; time 3 day
[27] = molecular target: Prostaglandin G/H synthase 2 (Homo sapiens) (UniProt P35354); assay: COX2(h) CEREP ligand profiling; conditions: Compound concentration 10.0 uM
Ramos = assay: Ramos cell line Proliferation assay; assay type: functional, Homo sapiens; conditions: Compound concentration 10 uM; time 3 day
Karpas-1106P = assay: K1106 cell line Proliferation assay; assay type: functional, Homo sapiens; conditions: Compound concentration 10 uM; time 3 day
SK-MEL-5 = assay: SKMEL5 cell line Proliferation assay; assay type: functional, Homo sapiens; conditions: Compound concentration 10 uM; time 5 day
NCI-H727 = assay: H727 cell line Proliferation assay; assay type: functional, Homo sapiens; conditions: Compound concentration 10 uM; time 3 day
MM1.S = assay: MM1.s cell line Proliferation assay; assay type: functional, Homo sapiens; conditions: Compound concentration 10 uM; time 3 day
HCC4006 = assay: HCC4006 cell line Proliferation assay; assay type: functional, Homo sapiens; conditions: Compound concentration 10 uM; time 3 day
AMO1 = assay: AMO-1 cell line Proliferation assay; assay type: functional, Homo sapiens; conditions: Compound concentration 10 uM; time 3 day

Chain of Vascular endothelial growth factor receptor 1 (Homo sapiens) (P17948 whole entry): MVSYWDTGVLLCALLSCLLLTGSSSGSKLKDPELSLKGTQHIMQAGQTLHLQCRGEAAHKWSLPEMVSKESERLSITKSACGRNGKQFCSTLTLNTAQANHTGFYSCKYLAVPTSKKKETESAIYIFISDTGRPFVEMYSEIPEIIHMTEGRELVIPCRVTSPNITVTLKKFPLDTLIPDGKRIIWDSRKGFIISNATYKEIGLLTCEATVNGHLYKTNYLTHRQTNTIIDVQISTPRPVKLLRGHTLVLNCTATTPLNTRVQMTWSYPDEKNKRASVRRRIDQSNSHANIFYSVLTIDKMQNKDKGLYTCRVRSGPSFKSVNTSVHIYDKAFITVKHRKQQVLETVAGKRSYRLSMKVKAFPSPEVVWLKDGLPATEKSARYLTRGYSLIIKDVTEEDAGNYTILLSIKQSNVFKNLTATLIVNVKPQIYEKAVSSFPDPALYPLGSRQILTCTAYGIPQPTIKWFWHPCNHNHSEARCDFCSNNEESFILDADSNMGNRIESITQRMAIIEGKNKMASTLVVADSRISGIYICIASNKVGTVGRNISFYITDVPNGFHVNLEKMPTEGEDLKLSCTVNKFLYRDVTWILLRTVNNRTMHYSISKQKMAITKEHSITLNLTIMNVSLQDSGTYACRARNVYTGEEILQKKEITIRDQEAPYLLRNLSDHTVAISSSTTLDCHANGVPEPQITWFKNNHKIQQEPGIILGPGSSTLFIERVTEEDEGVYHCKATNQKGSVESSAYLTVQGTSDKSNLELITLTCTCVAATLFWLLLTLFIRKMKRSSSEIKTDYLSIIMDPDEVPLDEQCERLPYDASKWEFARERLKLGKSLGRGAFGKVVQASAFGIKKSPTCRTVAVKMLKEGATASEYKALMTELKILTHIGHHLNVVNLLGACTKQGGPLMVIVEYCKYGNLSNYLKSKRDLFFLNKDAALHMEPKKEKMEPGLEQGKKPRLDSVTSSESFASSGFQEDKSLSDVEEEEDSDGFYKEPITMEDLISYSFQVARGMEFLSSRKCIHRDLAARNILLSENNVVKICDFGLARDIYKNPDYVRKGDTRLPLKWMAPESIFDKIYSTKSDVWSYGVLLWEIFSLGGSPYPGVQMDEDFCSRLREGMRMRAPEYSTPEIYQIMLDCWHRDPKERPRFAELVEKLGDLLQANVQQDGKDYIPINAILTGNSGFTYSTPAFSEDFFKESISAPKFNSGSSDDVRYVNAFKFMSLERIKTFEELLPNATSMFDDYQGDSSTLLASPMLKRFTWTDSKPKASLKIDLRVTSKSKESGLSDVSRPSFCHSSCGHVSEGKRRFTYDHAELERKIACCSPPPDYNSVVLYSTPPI
Chain of Serine/threonine-protein kinase NLK (Homo sapiens) (Q9UBE8 whole entry): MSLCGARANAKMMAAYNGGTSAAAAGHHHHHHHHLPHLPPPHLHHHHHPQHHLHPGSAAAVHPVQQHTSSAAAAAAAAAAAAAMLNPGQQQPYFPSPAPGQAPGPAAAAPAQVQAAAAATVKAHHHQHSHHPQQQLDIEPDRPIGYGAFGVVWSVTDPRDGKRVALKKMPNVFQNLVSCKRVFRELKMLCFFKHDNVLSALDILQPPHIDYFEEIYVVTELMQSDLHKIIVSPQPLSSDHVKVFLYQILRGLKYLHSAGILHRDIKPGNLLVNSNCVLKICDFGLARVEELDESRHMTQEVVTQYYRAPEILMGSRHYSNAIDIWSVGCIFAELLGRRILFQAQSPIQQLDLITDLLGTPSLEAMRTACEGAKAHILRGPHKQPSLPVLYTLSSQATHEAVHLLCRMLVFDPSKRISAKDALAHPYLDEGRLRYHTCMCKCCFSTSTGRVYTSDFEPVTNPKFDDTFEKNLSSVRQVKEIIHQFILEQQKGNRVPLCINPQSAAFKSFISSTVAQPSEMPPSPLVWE
Chain of Urotensin-2 receptor (Homo sapiens) (Q9UKP6 whole entry): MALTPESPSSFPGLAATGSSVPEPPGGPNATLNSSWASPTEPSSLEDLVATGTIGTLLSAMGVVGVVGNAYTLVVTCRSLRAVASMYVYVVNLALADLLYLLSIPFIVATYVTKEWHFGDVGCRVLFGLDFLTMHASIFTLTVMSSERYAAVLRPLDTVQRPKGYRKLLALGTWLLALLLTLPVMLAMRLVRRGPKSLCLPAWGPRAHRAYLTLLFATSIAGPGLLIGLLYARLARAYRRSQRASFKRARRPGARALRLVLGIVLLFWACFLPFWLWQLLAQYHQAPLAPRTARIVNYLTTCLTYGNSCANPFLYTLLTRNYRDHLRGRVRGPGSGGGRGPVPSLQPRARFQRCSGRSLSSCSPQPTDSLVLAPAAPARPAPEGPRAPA
Chain of Mitogen-activated protein kinase 8 (Homo sapiens) (P45983 whole entry): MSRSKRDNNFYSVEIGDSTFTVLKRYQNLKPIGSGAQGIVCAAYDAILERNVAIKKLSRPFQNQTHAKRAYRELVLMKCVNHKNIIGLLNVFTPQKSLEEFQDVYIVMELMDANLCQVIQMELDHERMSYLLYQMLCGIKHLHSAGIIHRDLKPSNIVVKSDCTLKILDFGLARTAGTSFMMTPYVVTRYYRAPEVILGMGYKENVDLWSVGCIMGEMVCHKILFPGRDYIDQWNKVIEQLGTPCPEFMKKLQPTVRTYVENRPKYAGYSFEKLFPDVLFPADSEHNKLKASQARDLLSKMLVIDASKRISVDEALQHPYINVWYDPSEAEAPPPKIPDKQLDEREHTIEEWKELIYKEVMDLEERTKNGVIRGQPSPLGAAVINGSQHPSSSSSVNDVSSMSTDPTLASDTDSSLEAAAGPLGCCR
Chain of Serine/threonine-protein kinase Nek10 (Homo sapiens) (Q6ZWH5 whole entry): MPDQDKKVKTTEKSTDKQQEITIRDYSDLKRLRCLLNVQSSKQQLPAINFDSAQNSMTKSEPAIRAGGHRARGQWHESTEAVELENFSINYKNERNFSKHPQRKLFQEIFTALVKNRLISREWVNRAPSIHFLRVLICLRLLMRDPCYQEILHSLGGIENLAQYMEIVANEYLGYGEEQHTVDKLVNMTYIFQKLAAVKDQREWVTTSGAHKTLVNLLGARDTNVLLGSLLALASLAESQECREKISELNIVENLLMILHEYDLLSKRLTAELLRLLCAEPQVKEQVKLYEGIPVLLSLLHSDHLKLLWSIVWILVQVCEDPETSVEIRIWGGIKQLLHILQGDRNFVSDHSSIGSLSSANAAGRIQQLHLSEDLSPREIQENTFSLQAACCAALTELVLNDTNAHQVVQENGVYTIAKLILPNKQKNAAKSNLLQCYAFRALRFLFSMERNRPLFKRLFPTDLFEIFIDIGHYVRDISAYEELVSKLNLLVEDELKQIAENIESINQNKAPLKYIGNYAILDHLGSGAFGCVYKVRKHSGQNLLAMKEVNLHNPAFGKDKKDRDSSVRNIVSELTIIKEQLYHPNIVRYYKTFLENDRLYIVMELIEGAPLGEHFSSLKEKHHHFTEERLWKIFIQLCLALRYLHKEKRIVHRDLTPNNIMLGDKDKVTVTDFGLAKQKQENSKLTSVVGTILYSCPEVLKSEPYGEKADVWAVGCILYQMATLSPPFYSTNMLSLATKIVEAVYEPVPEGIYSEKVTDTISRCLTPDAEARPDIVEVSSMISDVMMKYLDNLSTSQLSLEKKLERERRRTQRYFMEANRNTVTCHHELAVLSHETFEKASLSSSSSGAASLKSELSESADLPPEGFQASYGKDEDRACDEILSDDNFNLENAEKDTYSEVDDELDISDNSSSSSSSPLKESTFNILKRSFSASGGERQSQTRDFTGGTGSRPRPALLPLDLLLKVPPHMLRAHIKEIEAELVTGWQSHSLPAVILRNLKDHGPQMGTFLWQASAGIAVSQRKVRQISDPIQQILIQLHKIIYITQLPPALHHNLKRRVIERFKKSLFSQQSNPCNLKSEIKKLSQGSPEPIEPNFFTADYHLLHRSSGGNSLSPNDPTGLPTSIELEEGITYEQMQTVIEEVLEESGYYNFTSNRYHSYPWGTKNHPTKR
Chain of Cyclin-dependent kinase 11B (Homo sapiens) (P21127 whole entry): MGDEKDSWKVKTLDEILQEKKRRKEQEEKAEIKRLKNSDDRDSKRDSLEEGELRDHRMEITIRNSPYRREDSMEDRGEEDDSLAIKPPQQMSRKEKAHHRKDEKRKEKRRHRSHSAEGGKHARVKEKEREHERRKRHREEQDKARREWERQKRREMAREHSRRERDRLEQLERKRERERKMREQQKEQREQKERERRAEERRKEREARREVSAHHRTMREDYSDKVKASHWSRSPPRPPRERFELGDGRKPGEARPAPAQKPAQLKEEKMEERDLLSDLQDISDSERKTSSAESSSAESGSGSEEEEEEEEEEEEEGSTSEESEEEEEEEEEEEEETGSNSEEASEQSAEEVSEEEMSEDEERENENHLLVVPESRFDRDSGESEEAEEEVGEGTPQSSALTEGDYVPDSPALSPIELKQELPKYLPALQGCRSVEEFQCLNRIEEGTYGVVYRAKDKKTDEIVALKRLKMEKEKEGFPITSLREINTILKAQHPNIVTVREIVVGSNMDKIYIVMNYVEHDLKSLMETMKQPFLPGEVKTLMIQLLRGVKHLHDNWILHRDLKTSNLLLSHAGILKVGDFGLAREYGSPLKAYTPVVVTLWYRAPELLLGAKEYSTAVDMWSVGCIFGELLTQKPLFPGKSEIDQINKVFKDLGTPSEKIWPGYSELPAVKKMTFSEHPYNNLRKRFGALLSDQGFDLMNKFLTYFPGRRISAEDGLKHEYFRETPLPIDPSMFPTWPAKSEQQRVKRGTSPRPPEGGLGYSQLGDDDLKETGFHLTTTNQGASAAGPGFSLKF
Chain of Cyclin-dependent kinase 5 (Homo sapiens) (Q00535 whole entry, looked up): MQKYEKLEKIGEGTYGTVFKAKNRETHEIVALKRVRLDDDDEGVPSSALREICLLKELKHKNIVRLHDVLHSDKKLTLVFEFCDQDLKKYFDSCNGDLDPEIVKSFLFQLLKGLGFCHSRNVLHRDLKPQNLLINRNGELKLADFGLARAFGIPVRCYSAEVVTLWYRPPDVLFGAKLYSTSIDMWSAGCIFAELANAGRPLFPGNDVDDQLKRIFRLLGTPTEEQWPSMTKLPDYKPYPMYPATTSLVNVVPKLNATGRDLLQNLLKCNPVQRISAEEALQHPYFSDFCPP

Compound: CNC(=O)Nc1ccc2c(c1)[C@@]1(CC2)OC(=O)N(CC(=O)N(Cc2ccc(F)cc2)[C@@H](C)C(F)(F)F)C1=O [A-486]
- residual activity [1]: 99%
- residual activity [2]: 81%
- residual activity [3]: 100%
- residual activity [4]: 95%
- inhibition [5]: 2.22%
- residual activity [6]: 71%
- residual activity [7]: 100%
- IC50 (LNCaP-Clone-FGC): > 10000 nM (not active)
- residual activity [8]: 91%
- residual activity [9]: 75%
- inhibition [10]: 0.04%
- residual activity [11]: 79%
- residual activity [12]: 100%
- inhibition [13]: 19%
- residual activity [14]: 83%
- residual activity [15]: 97%
- inhibition [16]: 21%
- residual activity [17]: 100%
- residual activity [18]: 77%
- residual activity [19]: 97%
- residual activity [20]: 100%
- residual activity [21]: 100%
- residual activity [22]: 76%
- residual activity [23]: 92%
- residual activity [24]: 91%

Compound: CNC(=O)Nc1ccc2c(c1)CC[C@@]21OC(=O)N(CC(=O)N(Cc2ccc(F)cc2)[C@@H](C)C(F)(F)F)C1=O [A-485]
- residual activity [1]: 86%
- residual activity [2]: 72%
- Cell Proliferation EC50 (NCI-H1417): >10000 nM
- Cell Proliferation EC50 (MOLM-13): 350 nM
- residual activity [3]: 100%
- residual activity [4]: 96%
- inhibition [5]: 18%
- Cell Proliferation EC50 (HCC38): >10000 nM
- residual activity [6]: 65%
- residual activity [7]: 80%
- Ki ([25]; read-out: Ki): 223 nM
- Ki ([25]; read-out: pKi (converted)): 219 nM
- IC50 (LNCaP-Clone-FGC): 381 nM (active)
- residual activity [8]: 81%
- residual activity [9]: 79%
- Cell Proliferation EC50 (NCI-H1836): >10000 nM
- Cell Proliferation EC50 (DU-145): >10000 nM
- residual activity [11]: 84%
- residual activity [12]: 100%
- Cell Proliferation EC50 (HCC1143): >10000 nM
- Cell Proliferation EC50 (NCI-H187): >10000 nM
- Cell Proliferation EC50 (WM 266-4): 1914 nM
- inhibition [26]: 0%
- Cell Proliferation EC50 (NCI-H838): 6990 nM
- inhibition [13]: 24%
- Cell Proliferation EC50 (DOHH-2): 751.2 nM
- residual activity [14]: 74%
- residual activity [15]: 94%
- Cell Proliferation EC50 (OCI-AML-5): 4860 nM
- inhibition [16]: 6%
- Cell Proliferation EC50 (NU-DUL-1): 478.1 nM
- inhibition [27]: 11%
- residual activity [17]: 91%
- residual activity [18]: 82%
- Cell Proliferation EC50 (Ramos): 934 nM
- Cell Proliferation EC50 (Karpas-1106P): 405.1 nM
- residual activity [19]: 84%
- residual activity [20]: 82%
- Cell Proliferation EC50 (SK-MEL-5): 907 nM
- Cell Proliferation EC50 (NCI-H727): 6632 nM
- Cell Proliferation EC50 (MM1.S): 181 nM
- Cell Proliferation EC50 (HCC4006): 4640 nM
- Cell Proliferation EC50 (AMO1): 1093 nM
- residual activity [21]: 100%
- residual activity [22]: 78%
